Data set [1] relates to LN229 gliobastoma cells MGMT−/MMR−. Kind of data set: Anti-cancer assay, isogenic LN229 cells, nuclei count (Examples 43, 46). Type of data set: cell-based. As to conditions: Homo sapiens, LN-229; MGMT negative/MMR negative; Example 46, maximum concentration 200 μM; read-out: IC50 for causing the death of LN229 cells.
Data set [2] shares this test system. Described as above. As to conditions: Homo sapiens, LN-229; LN229 MGMT−/MMR−; 120 hours; read-out: MGMT− MMR− Activity. Type of data set: cell-based. The text has this: (§1) Cytotoxicity of the compounds may be measured in short-term cell viability assays against four isogenic LN229 glioblastoma cell lines engineered to be proficient or deficient in MGMT and/or MMR activity by using short hairpin RNAs (shRNAs) targeting MSH2. This approach allows for determination of the relationship between MGMT status, MMR status, and compound activity. LN229 cells are maintained in Dulbecco's Modified Eagle Medium (DMEM) supplemented with 10% fetal bovine serum, 1% Penicillin/Streptomycin, and 0.1% Fungin. DAY 0: Cells are plated into sterile 96-well plates (Corning Costar 96-well) at a concentration of 500 cells/well using a Multichannel pipettor. Then, assay plates are incubated overnight in a 37° C. 5% CO2 incubator. DAY 1: Compounds are prepared as 50 mM stocks in dimethyl sulfoxide (DMSO) and stored protected from light at room temperature (RT) until use. Prior to compound addition, a two-fold serial dilution of compound stock solutions is performed in DMSO from 30 mM to 0.117 mM in a 96-well Master plate. Vehicle control wells contain DMSO. 97 μL of media is added to each well of a new 96-well plate (Daughter plate) and 3 μL of drug solution from Master plate is added to corresponding wells in the Daughter plate resulting in a 3× plate. Three replicate dilution curves of each compound are run on each assay plate. The final concentration of compounds ranges from 300 μM to 1.171 μM (9-point, 2-fold dilution dose response curve), and the final DMSO concentration is 1%.
(§2) Assay plates are incubated for 120 hours at 37° C. in a humidified 5% CO2 incubator. DAY 5: Following incubation, cells are fixed with 4% paraformaldehyde and stained with Hoechst dye for nuclei visualization. Fixation, staining and washing is performed by using a Thermo Scientific Multidrop Combi. Images are acquired on a BioTek Cytation 5 Cell Imaging Multimode Reader and quantified using Cell Profiler image analysis software. Raw cell count data for test compounds are normalized to percent viability relative to the DMSO vehicle control.
(§3) Isogenic LN229 gliobastoma cells were maintained in Dulbecco's Modified Eagle Medium (DMEM) supplemented with 10% fetal bovine serum, 1% Penicillin/Streptomycin, and 0.1% Fungin. DAY 0: Cells were plated into sterile 96-well plates (Corning Costar 96-well) at a concentration of 500 cells/well using a Multichannel pipettor. Then, assay plates were incubated overnight in a 37° C. 5% CO2 incubator. DAY 1: Compounds were prepared as 50 mM stocks in dimethyl sulfoxide (DMSO) and stored protected from light at room temperature (RT) until use. Prior to compound addition, a two-fold serial dilution of compound stock solutions was performed in DMSO from 30 mM to 0.117 mM in a 96-well Master plate. Vehicle control wells contained DMSO. 97 μL of media was added to each well of a new 96-well plate (Daughter plate) and 3 μL of drug solution from Master plate was added to corresponding wells in the Daughter plate resulting in a 3× plate. Three replicate dilution curves of each compound were run on each assay plate. The final concentration of compounds ranged from 300 μM to 1.171 μM (9-point, 2-fold dilution dose response curve), and the final DMSO concentration was 1%.
(§4) Assay plates were incubated for 120 hours at 37° C. in a humidified 5% CO2 incubator. DAY 5: Following incubation, cells were fixed with 4% paraformaldehyde and stained with Hoechst dye for nuclei visualization. Fixation, staining and washing was performed by using a Thermo Scientific Multidrop Combi. Images were acquired on a BioTek Cytation 5 Cell Imaging Multimode Reader and quantified using Cell Profiler image analysis software. Raw cell count data for test compounds were normalized to percent viability relative to the DMSO vehicle control. […]

Data set [3] has as its system LN229 gliobastoma cells MGMT−/MMR+. The description is as above. As to conditions: Homo sapiens, LN-229; LN229 MGMT−/MMR+; 120 hours; read-out: MGMT− MMR+ Activity. The format is cell-based.
Description: as §1, §2, §3, §4

Data set [4] has as its system rats. Kind of data set: Animal model toxicity testing in rats. To be noted: tested doses exceeded those at which A1 caused 100% mortality.
The subject of data set [5] is 885 barcoded cancer cell lines. Kind of data set: PRISM multiplexed cell-viability assay (Example 45). The format is cell-based. To be noted: 5-day treatment; for Log 2 fold change in abundance of the cells: 66.7 μM. The source says: The multiplexed cell-viability platform, PRISM (profiling relative inhibition simultaneously in mixtures), enabled multiplexed screening of Compound I-1 across 900 barcoded cell lines representing more than 45 lineages. Details of the assay technique are described in Yu, C., et al. “High-throughput identification of genotype-specific cancer vulnerabilities in mixtures of barcoded tumor cell lines,” Nat. Biotechnol. 2016, Vol. 34, p. 419-423; and Corsello, S. M., et al. “Discovering the anti-cancer potential of non-oncology drugs by systematic viability profiling,” Nat. Cancer, 2020, Vol. 1, p. 235-248; each of which are hereby incorporated by reference in their entirety.
Briefly, unique oligonucleotide barcodes are stably transduced into individual cancer cell lines. Following barcode transduction, individual cell lines are pooled together in groups of 20-25 based on growth rate similarity, then thawed into 384-well assay-ready plates, and treated with test compound. After 5 days of incubation, isolated mRNA is used to quantify transcribed barcode abundance of each individual cancer cell line to calculate relative viability (Log 2 fold change, “LFC”).
Compound I-1 was screened in the PRISM assay at 8-point dose (3-fold dilution) with a 5-day treatment with 885 cancer cell lines passing QC. Two PRISM cell line collections were used in the assay: PR500 (including only adherent cell lines) and PR300+(including adherent and suspension cell lines). Benchmark compounds (included in the validation compounds) were also tested at doses to ensure high data quality. All compounds were run in triplicate, and each plate contained positive (Bortezomib, 20 μM) and negative (DMSO) controls.

The structures appear in SMILES notation. Read-outs that look alike come from different tables or passages of the source. Bounds are passed on as bounds.

For `NC(=O)c1ncn2c(=O)n(CCOC(F)(F)F)nnc12` [Compound I-1, 4-Oxo-3-(2-(trifluoromethoxy)ethyl)-3,4-dihydroimidazo[5,1-d][1,2,3,5]tetrazine-8-carboxamide], the IC50 in data set [1], in data set [2] and in data set [3] was under 20 µM each time. The adverse clinical signs entry in data set [4] is “no adverse clinical signs were observed”. In addition, the “Log 2 fold change in abundance of the cells” value is given as −3.5 to −2.0 in data set [5] (cell lines of Table 8), −2.0 to −1.0 in data set [5] (cell lines of Table 9), −1.0 to −0.5 in data set [5] (cell lines of Table 10) and −0.5 to −0.001 in data set [5] (cell lines of Table 11). Also, the anti-cancer effect result in data set [5] (cell lines of Table 12) is given as “did not appear to provide an anti-cancer effect”.

The record behind these values is patent publication US20250066371A1, “FLUOROALKOXYALKYLENE-DIHYDROIMIDAZO[5,1-D]TETRAZINONE COMPOUNDS AND RELATED COMPOUNDS AND THEIR USE IN TREATING MEDICAL CONDITIONS” (priority 2023, published 2025).
